This note sets out measurements from patent publication US10208056B2, “Condensed tricyclic compounds as protein kinase inhibitors” (FUNDACIÓN DEL SECTOR PÚBLICO ESTATAL CENTRO NACIONAL DE …, priority 2015, dated 2019).

Holding throughout (assay type): cell-based
For experiment [1], the target named is T1, intracellular CDK8 (Homo sapiens (Human), UniProt P49336). As to the kind of experiment: Cellular CDK8 inhibition assay, western blot P-STAT1 (S727) in IFN-γ treated SW620 cells. The settings on record: SW620, IFNγ treated, read-out: SW620 P-STAT1(S727) w IFNγ.
The subject of a further experiment is MDA-MB-231. Put plainly: In vitro cell proliferation assay (CellTiter-Glo), MDA-MB-231. The settings on record: Homo sapiens, MDA-MB-231, growth inhibition, read-out: GI50 MDA-MB-231.
In experiment [2] the target is T1, intracellular CDK8. Put plainly: Endogenous phosphoSTAT1 inhibition in SW620 cells growing in 10% FBS. The settings on record: read-out: SW620 P-STAT1(S727). An outline of the steps: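 SW620 cells in 10% FBS treated 8 h with compound, then lysed and phospho-STAT1 measured relative to total STAT1.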

Read-outs that look alike come from different tables or passages of the source.

T1 sequence (P49336 whole entry): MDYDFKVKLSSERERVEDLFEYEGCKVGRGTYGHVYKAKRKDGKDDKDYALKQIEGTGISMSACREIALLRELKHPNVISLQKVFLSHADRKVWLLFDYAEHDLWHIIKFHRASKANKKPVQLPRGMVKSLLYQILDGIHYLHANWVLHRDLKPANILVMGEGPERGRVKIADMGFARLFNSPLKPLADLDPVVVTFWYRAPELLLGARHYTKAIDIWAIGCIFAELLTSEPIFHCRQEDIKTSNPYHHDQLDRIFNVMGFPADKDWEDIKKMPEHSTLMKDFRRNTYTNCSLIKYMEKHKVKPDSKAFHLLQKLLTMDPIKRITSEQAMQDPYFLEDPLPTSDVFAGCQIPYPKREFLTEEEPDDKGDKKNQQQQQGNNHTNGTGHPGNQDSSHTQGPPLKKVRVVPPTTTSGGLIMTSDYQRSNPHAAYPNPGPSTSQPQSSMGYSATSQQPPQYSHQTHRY
T1 sequence (P24863 whole entry partner): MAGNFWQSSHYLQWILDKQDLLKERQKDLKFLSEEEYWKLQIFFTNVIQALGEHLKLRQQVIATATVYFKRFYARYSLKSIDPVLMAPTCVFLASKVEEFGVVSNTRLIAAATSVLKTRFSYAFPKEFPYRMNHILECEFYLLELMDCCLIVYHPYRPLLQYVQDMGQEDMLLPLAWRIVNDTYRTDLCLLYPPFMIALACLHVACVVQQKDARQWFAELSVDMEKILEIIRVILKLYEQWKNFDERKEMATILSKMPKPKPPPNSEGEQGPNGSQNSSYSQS
T1 sequence (Q93074 whole entry partner): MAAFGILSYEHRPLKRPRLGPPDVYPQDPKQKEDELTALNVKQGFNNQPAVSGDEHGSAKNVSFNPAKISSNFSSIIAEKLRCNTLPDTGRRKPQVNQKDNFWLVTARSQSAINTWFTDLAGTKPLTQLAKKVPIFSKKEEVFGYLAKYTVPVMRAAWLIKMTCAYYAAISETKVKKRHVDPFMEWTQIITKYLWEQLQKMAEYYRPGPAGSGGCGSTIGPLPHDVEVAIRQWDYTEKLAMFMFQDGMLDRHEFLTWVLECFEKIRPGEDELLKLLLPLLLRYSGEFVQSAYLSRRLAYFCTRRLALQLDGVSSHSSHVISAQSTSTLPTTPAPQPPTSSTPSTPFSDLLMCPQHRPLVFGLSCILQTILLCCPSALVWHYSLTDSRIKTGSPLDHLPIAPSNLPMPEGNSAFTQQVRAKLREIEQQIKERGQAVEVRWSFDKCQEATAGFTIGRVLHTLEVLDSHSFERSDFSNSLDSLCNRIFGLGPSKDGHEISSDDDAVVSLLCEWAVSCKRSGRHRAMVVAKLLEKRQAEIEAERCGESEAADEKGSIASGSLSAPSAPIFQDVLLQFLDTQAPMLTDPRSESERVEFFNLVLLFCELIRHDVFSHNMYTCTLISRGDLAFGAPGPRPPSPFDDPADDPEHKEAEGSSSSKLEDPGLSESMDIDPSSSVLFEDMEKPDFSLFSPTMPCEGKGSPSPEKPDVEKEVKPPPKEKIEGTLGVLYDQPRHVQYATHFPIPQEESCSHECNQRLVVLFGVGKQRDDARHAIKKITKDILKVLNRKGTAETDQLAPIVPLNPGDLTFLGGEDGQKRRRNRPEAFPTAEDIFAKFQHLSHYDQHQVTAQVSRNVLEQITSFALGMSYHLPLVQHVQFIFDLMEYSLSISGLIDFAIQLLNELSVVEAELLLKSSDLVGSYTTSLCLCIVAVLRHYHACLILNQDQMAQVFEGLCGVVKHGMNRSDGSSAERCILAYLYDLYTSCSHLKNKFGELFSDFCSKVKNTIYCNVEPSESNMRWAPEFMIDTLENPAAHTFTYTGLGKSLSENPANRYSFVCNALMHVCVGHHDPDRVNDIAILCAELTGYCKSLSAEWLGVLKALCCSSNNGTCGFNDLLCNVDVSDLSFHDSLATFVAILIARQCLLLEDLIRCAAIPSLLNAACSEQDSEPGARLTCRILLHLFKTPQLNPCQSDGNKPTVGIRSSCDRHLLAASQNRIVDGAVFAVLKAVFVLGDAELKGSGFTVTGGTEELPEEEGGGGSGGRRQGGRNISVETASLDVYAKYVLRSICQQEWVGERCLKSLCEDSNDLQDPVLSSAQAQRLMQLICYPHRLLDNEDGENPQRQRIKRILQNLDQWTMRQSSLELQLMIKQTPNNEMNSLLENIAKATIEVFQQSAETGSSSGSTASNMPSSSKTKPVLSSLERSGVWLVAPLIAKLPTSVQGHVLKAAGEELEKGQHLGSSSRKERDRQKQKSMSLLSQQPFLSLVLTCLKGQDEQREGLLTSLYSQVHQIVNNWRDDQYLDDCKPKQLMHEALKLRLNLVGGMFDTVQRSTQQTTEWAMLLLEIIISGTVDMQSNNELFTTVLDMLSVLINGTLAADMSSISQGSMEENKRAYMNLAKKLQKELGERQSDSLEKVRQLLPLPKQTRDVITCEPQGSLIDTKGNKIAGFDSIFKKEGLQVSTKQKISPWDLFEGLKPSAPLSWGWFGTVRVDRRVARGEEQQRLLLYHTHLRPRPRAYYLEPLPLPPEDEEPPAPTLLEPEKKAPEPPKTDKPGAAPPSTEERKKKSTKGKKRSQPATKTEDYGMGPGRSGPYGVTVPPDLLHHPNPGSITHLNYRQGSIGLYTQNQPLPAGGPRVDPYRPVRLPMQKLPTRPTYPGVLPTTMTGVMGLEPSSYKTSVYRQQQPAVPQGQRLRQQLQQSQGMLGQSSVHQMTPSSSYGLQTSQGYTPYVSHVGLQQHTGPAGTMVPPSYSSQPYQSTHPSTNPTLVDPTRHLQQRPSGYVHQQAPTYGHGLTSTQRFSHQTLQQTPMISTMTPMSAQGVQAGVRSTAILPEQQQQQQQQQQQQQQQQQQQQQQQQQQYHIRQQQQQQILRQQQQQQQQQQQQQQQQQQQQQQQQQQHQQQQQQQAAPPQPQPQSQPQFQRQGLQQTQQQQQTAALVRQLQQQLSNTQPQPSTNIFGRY

Turning to `NC(=O)c1cc2c([nH]1)-c1ccncc1O[C@H]2C1CCOCC1` (single isomer, unassigned) [Example 72], the EC50 at intracellular CDK8 [1] (semiquantitative) is below 500 nM. Besides, the GI50 in the experiment on MDA-MB-231 (semiquantitative) was in the range of 10 to 100 µM.

Consider `CCn1c(C(N)=O)cc2c1-c1ccncc1OC2(C)C` [Example 43], for which the values for the EC50 at intracellular CDK8 [1] (quantitative) and at intracellular CDK8 [2] (quantitative) were 0.064 nM and 1.5 nM, respectively. Further, the GI50 with MDA-MB-231 (quantitative) stood at 3.5 µM.

`CC1(C)Oc2cnccc2-c2c1cc(C(N)=O)n2CCF` [Example 52]: the EC50 at intracellular CDK8 [1] (semiquantitative) and at intracellular CDK8 [2] (semiquantitative) was below 500 nM each time. Moreover, the GI50 in the experiment with MDA-MB-231 (semiquantitative) lay in the range of 1 to 10 µM.

Turning to `CCn1c(C(N)=O)c(-c2ccccc2OC)c2c1-c1ccncc1OC2(C)C` [Example 68], the EC50 at intracellular CDK8 [1] (semiquantitative) and at intracellular CDK8 [2] (semiquantitative) was below 500 nM throughout. The GI50 with MDA-MB-231 (semiquantitative) lay within 10 to 100 µM.

Broadly, the GI50 is the concentration giving 50% growth inhibition.
